# From patent publication US20230329236A1, “HERBICIDAL PYRIMIDINE DERIVATIVES” (MoA Technology Limited, priority 2020, published 2023)
# How the values were obtained:
# [1] = system: Alopecurus myosuroides (ALOMY); experiment: Post-emergence glasshouse test, visual injury, ALOMY; format: in vivo; conditions: Table 4, post-emergence, 14±1 days post application
# Experimental: (§1) Seeds of a variety of test species are grown in a sandy loam soil mixture, Lolium multiflorum (LOLMU), Amaranthus retroflexus (AMARE), Echinochloa crus-gaffi (ECHCG), Veronica persica (VERPE), Glycine max (GLXMA), Oryza sativa (ORYSA), Zea mays (ZEAMX), spring wheat (TRZAS), Ipomoea hederacea (IPOHE), Ipomoea purpurea (PHBPU), Stellaria media (STEME), Solanum nigrum (SOLNI), Digitaria sanguinalis (DIGSA), Setaria italica (SETIT), Alopecurus myosuroides (ALOMY) and Avena fatua (AVEFA).
# (§2) After sowing, at growth stage BBCH 12-14 (post-emergence), the plants are sprayed with an aqueous spray solution derived from the formulation of the technical active ingredient in acetone/water (50:50) solution containing 0.5% Tween 20 (polyoxyethlyene sorbitan monolaureate, CAS RN 9005-64-5). The test compounds are applied at the required concentration of active ingredient in g/ha. The test plants are then grown in a glasshouse under controlled environmental conditions and watered regularly as required. After 14±1 days post application (for post-emergence test), the test is evaluated by assessing the percentage damage caused to the plants in comparison with the untreated plots. The biological activities for post-emergence testing are shown below (Table 3 and Table 4) as a % visual injury.
# Avena fatua (AVEFA) = experiment: Post-emergence glasshouse test, visual injury, AVEFA; format: in vivo; conditions: Table 4, post-emergence, 14±1 days post application
# Experimental: as §1, §2
# Veronica persica (VERPE) = experiment: Post-emergence glasshouse test, visual injury, VERPE; format: in vivo; conditions: 336 h, 14±1 days post application
# Method in brief: (§3)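 Seeds sown in sandy loam soil; seedlings grown to BBCH 12-14, then sprayed with active ingredient (g/ha) in acetone/water 50:50 plus 0.5% Tween 20; plants kept in glasshouse, watered as needed; damage assessed after 14±1 days as % of untreated.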
# Stellaria media (STEME) = experiment: Post-emergence glasshouse test, visual injury, STEME; format: in vivo; conditions: Table 4, post-emergence, 14±1 days post application
# Experimental: as §1, §2
# spring wheat (TRZAS) = experiment: Post-emergence glasshouse test, visual injury, TRZAS; format: in vivo; conditions: Table 4, post-emergence, 14±1 days post application
# Experimental: as §1, §2
# [2] = system: Ipomoea hederacea (IPOHE); experiment: Post-emergence glasshouse test, visual injury, IPOHE; format: in vivo; conditions: Table 4, post-emergence, 14±1 days post application
# Experimental: as §1, §2
# [3] = system: Amaranthus retroflexus (AMARE); experiment: Post-emergence glasshouse test, visual injury, AMARE; format: in vivo; conditions: 336 h, 14±1 days post application
# Method in brief: as §3
# Oryza sativa (ORYSA) = experiment: Post-emergence glasshouse test, visual injury, ORYSA; format: in vivo; conditions: Table 4, post-emergence, 14±1 days post application
# Experimental: as §1, §2
# Solanum nigrum (SOLNI) = experiment: Post-emergence glasshouse test, visual injury, SOLNI; format: in vivo; conditions: Table 4, post-emergence, 14±1 days post application
# Experimental: as §1, §2
# [4] = system: Lolium multiflorum (LOLMU); experiment: Post-emergence glasshouse test, visual injury, LOLMU; format: in vivo; conditions: 336 h, 14±1 days post application
# Method in brief: as §3
# Setaria italica (SETIT) = experiment: Post-emergence glasshouse test, visual injury, SETIT; format: in vivo; conditions: Table 4, post-emergence, 14±1 days post application
# Experimental: as §1, §2
# Ipomoea purpurea (PHBPU) = experiment: Post-emergence glasshouse test, visual injury, PHBPU; format: in vivo; conditions: Table 4, post-emergence, 14±1 days post application
# Experimental: as §1, §2
# Zea mays (ZEAMX) = experiment: Post-emergence glasshouse test, visual injury, ZEAMX; format: in vivo; conditions: Table 4, post-emergence, 14±1 days post application
# Experimental: as §1, §2
# [5] = system: Digitaria sanguinalis (DIGSA); experiment: Post-emergence glasshouse test, visual injury, DIGSA; format: in vivo; conditions: Table 4, post-emergence, 14±1 days post application
# Experimental: as §1, §2
# [6] = system: Echinochloa crus-gaffi (ECHCG); experiment: Post-emergence glasshouse test, visual injury, ECHCG; format: in vivo, Echinochloa crus-galli; conditions: 336 h, 14±1 days post application
# Method in brief: as §3
# Glycine max (GLXMA) = experiment: Post-emergence glasshouse test, visual injury, GLXMA; format: in vivo; conditions: Table 4, post-emergence, 14±1 days post application
# Experimental: as §1, §2
# [7] = Table 4, post-emergence, 125 g/ha
# [8] = Table 4, post-emergence, 250 g/ha
# [9] = Table 4, post-emergence, 1000 g/ha
smiles,measurement,setting,value
Cc1cc(-c2cnc(NC3CCCC3)nc2C(C)C)on1 [Compound 45],ALOMY % visual injury,[1]; 125 g/ha,50%
same,ALOMY % visual injury,[1]; 250 g/ha,70%
same,ALOMY % visual injury,[1]; 500 g/ha,50%
same,ALOMY % visual injury,[1]; 1000 g/ha,80%
same,AVEFA % visual injury,Avena fatua (AVEFA); 125 g/ha,0%
same,AVEFA % visual injury,Avena fatua (AVEFA); 250 g/ha,40%
same,AVEFA % visual injury,Avena fatua (AVEFA); 500 g/ha,60%
same,AVEFA % visual injury,Avena fatua (AVEFA); 1000 g/ha,70%
same,pest or weed control at 500 g/ha,"Veronica persica (VERPE); Table 3, post-emergence",100%
same,pest or weed control at 125 g/ha,"Veronica persica (VERPE); Table 4, post-emergence",100%
same,pest or weed control at 250 g/ha,"Veronica persica (VERPE); Table 4, post-emergence",100%
same,pest or weed control at 500 g/ha,"Veronica persica (VERPE); Table 4, post-emergence",100%
same,pest or weed control at 1000 g/ha,"Veronica persica (VERPE); Table 4, post-emergence",100%
same,STEME % visual injury,Stellaria media (STEME); 125 g/ha,100%
same,STEME % visual injury,Stellaria media (STEME); 250 g/ha,100%
same,STEME % visual injury,Stellaria media (STEME); 500 g/ha,100%
same,STEME % visual injury,Stellaria media (STEME); 1000 g/ha,100%
same,TRZAS % visual injury,spring wheat (TRZAS); 125 g/ha,0%
same,TRZAS % visual injury,spring wheat (TRZAS); 250 g/ha,30%
same,TRZAS % visual injury,spring wheat (TRZAS); 500 g/ha,30%
same,TRZAS % visual injury,spring wheat (TRZAS); 1000 g/ha,40%
same,IPOHE % visual injury,[2]; 125 g/ha,0%
same,IPOHE % visual injury,[2]; 250 g/ha,50%
same,IPOHE % visual injury,[2]; 500 g/ha,40%
same,IPOHE % visual injury,[2]; 1000 g/ha,60%
same,pest or weed control at 500 g/ha,"[3]; Table 3, post-emergence",100%
same,pest or weed control at 125 g/ha,"[3]; Table 4, post-emergence",95%
same,pest or weed control at 250 g/ha,"[3]; Table 4, post-emergence",90%
same,pest or weed control at 500 g/ha,"[3]; Table 4, post-emergence",100%
same,pest or weed control at 1000 g/ha,"[3]; Table 4, post-emergence",100%
same,ORYSA % visual injury,Oryza sativa (ORYSA); 125 g/ha,50%
same,ORYSA % visual injury,Oryza sativa (ORYSA); 250 g/ha,99%
same,ORYSA % visual injury,Oryza sativa (ORYSA); 500 g/ha,90%
same,ORYSA % visual injury,Oryza sativa (ORYSA); 1000 g/ha,80%
same,SOLNI % visual injury,Solanum nigrum (SOLNI); 125 g/ha,98%
same,SOLNI % visual injury,Solanum nigrum (SOLNI); 250 g/ha,100%
same,SOLNI % visual injury,Solanum nigrum (SOLNI); 500 g/ha,100%
same,SOLNI % visual injury,Solanum nigrum (SOLNI); 1000 g/ha,100%
same,pest or weed control at 500 g/ha,"[4]; Table 3, post-emergence",70%
same,pest or weed control at 125 g/ha,[4]; [7],40%
same,pest or weed control at 250 g/ha,[4]; [8],60%
same,pest or weed control at 500 g/ha,"[4]; Table 4, post-emergence",90%
same,pest or weed control at 1000 g/ha,[4]; [9],100%
same,SETIT % visual injury,Setaria italica (SETIT); 125 g/ha,50%
same,SETIT % visual injury,Setaria italica (SETIT); 250 g/ha,80%
same,SETIT % visual injury,Setaria italica (SETIT); 500 g/ha,95%
same,SETIT % visual injury,Setaria italica (SETIT); 1000 g/ha,95%
same,PHBPU % visual injury,Ipomoea purpurea (PHBPU); 125 g/ha,50%
same,PHBPU % visual injury,Ipomoea purpurea (PHBPU); 250 g/ha,70%
same,PHBPU % visual injury,Ipomoea purpurea (PHBPU); 500 g/ha,70%
same,PHBPU % visual injury,Ipomoea purpurea (PHBPU); 1000 g/ha,70%
same,ZEAMX % visual injury,Zea mays (ZEAMX); 125 g/ha,0%
same,ZEAMX % visual injury,Zea mays (ZEAMX); 250 g/ha,0%
same,ZEAMX % visual injury,Zea mays (ZEAMX); 500 g/ha,70%
same,ZEAMX % visual injury,Zea mays (ZEAMX); 1000 g/ha,40%
same,DIGSA % visual injury,[5]; 125 g/ha,80%
same,DIGSA % visual injury,[5]; 250 g/ha,70%
same,DIGSA % visual injury,[5]; 500 g/ha,95%
same,DIGSA % visual injury,[5]; 1000 g/ha,98%
same,pest or weed control at 500 g/ha,"[6]; Table 3, post-emergence",100%
same,pest or weed control at 125 g/ha,[6]; [7],70%
same,pest or weed control at 250 g/ha,[6]; [8],80%
same,pest or weed control at 500 g/ha,"[6]; Table 4, post-emergence",80%
same,pest or weed control at 1000 g/ha,[6]; [9],90%
same,GLXMA % visual injury,Glycine max (GLXMA); 125 g/ha,20%
same,GLXMA % visual injury,Glycine max (GLXMA); 250 g/ha,50%
same,GLXMA % visual injury,Glycine max (GLXMA); 500 g/ha,40%
same,GLXMA % visual injury,Glycine max (GLXMA); 1000 g/ha,50%
Cc1cc(-c2cnc(NCc3ccncc3)nc2C2CC2)on1 [Compound 20],pest or weed control at 500 g/ha,"Veronica persica (VERPE); Table 3, post-emergence",30%
same,pest or weed control at 125 g/ha,"Veronica persica (VERPE); Table 4, post-emergence",50%
same,pest or weed control at 250 g/ha,"Veronica persica (VERPE); Table 4, post-emergence",60%
same,pest or weed control at 500 g/ha,"Veronica persica (VERPE); Table 4, post-emergence",70%
same,pest or weed control at 1000 g/ha,"Veronica persica (VERPE); Table 4, post-emergence",90%
same,STEME % visual injury,Stellaria media (STEME); 125 g/ha,0%
same,STEME % visual injury,Stellaria media (STEME); 250 g/ha,30%
same,STEME % visual injury,Stellaria media (STEME); 500 g/ha,40%
same,STEME % visual injury,Stellaria media (STEME); 1000 g/ha,95%
same,TRZAS % visual injury,spring wheat (TRZAS); 125 g/ha,0%
same,TRZAS % visual injury,spring wheat (TRZAS); 250 g/ha,0%
same,TRZAS % visual injury,spring wheat (TRZAS); 500 g/ha,30%
same,TRZAS % visual injury,spring wheat (TRZAS); 1000 g/ha,20%
same,IPOHE % visual injury,[2]; 125 g/ha,0%
same,IPOHE % visual injury,[2]; 250 g/ha,0%
same,IPOHE % visual injury,[2]; 500 g/ha,0%
same,IPOHE % visual injury,[2]; 1000 g/ha,30%
same,pest or weed control at 500 g/ha,"[3]; Table 3, post-emergence",80%
same,pest or weed control at 125 g/ha,"[3]; Table 4, post-emergence",0%
same,pest or weed control at 250 g/ha,"[3]; Table 4, post-emergence",0%
same,pest or weed control at 500 g/ha,"[3]; Table 4, post-emergence",50%
same,pest or weed control at 1000 g/ha,"[3]; Table 4, post-emergence",90%
same,ORYSA % visual injury,Oryza sativa (ORYSA); 125 g/ha,50%
same,ORYSA % visual injury,Oryza sativa (ORYSA); 250 g/ha,60%
same,ORYSA % visual injury,Oryza sativa (ORYSA); 500 g/ha,30%
same,ORYSA % visual injury,Oryza sativa (ORYSA); 1000 g/ha,60%
same,pest or weed control at 500 g/ha,"[4]; Table 3, post-emergence",0%
same,ZEAMX % visual injury,Zea mays (ZEAMX); 125 g/ha,20%
same,ZEAMX % visual injury,Zea mays (ZEAMX); 250 g/ha,50%
same,ZEAMX % visual injury,Zea mays (ZEAMX); 500 g/ha,50%
same,ZEAMX % visual injury,Zea mays (ZEAMX); 1000 g/ha,40%
same,pest or weed control at 500 g/ha,"[6]; Table 3, post-emergence",0%
same,GLXMA % visual injury,Glycine max (GLXMA); 125 g/ha,30%
same,GLXMA % visual injury,Glycine max (GLXMA); 250 g/ha,20%
same,GLXMA % visual injury,Glycine max (GLXMA); 500 g/ha,40%
same,GLXMA % visual injury,Glycine max (GLXMA); 1000 g/ha,50%
Cc1cc(-c2cnc(NC3CCCC3)nc2-c2ccc(C)o2)on1 [Compound 24],pest or weed control at 500 g/ha,"Veronica persica (VERPE); Table 3, post-emergence",0%
same,pest or weed control at 500 g/ha,"[3]; Table 3, post-emergence",50%
same,pest or weed control at 500 g/ha,"[4]; Table 3, post-emergence",0%
same,pest or weed control at 500 g/ha,"[6]; Table 3, post-emergence",70%
